Experimental data from US8071355B2, “Polyhydroxyalkanoate production by coenzyme A-dependent aldehyde dehydrogenase pathways” (Metabolix, Inc., priority 2002, dated 2011).

Tested on: E. coli strain MBX1335
Conditions: for average OD-600 reached: E. coli MBX1335, 10 g/L in medium, cultures allowed to continue to grow; for inhibition of growth rate: E. coli MBX1335, minimal glucose medium, 2, 5 and 10 g/L, triplicate, FIG. 2
Method: MBX1335 was grown overnight in LB medium supplemented with 25 μg/mL chloramphenicol. […] The base medium in these 3-mL cultures contained, per liter: 5 g glucose; 1 mmol MgSO4; 10 mg thiamine; 25.5 mmol Na2HPO4; 33.3 mmol K2HPO4; 27.2 mmol KH2PO4; 2.78 mg FeSO4.7H2O; 1.98 mg MnCl2.4H2O; 2.81 mg CoSO4.7H2O; 0.17 mg CuCl2.2H2O; 1.67 mg CaCl2.2H2O; 0.29 mg ZnSO4.7H2O; 0.1 g casein hydrolysate; and 25 μg chloramphenicol.

## 1-propanol
  average OD-600 reached: 3.8
  inhibition of growth rate: propionate inhibits the rate of growth substantially more than 1-propanol

## CCC(=O)[O-].[Na+] [propionate, sodium propionate]
  average OD-600 reached: 5.0
  inhibition of growth rate: propionate inhibits the rate of growth substantially more than 1-propanol
